Here are results for three compounds from PMC8347364 (International Journal of Molecular Sciences, 2021).

One assay has as its target T1, (UniProt A0A6M3RDS9).
T1 construct: gene ureG; Strep-tagged UreG (GenBank ID: MN660252)
The assay is described as follows: malachite green GTPase assay (IC50); Lineweaver-Burk Ki […]; CD change; ITC of nickel binding in its presence. It counts as biochemical, uncultured rumen bacterium.

A further assay deals with T2, ureG (uncultured rumen bacterium, UniProt A0A6M3RDS9).
T2 construct: Strep-tagged UreG (GenBank ID: MN660252)
T2 sequence (A0A6M3RDS9 1-203): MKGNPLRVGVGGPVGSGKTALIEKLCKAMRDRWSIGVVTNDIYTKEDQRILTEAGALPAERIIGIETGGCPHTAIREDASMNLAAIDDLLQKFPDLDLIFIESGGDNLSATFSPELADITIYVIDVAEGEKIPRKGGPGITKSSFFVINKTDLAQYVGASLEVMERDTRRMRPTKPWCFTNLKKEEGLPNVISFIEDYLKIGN
Description: malachite green GTPase assay, single concentration […], almost […] inhibition. It counts as biochemical.

T1 sequence (A0A6M3RDS9 1-203): as above

Consider `COc1ccc2c(c[n+](C)c3c4cc5c(cc4ccc23)OCO5)c1OC` [chelerythrine chloride], for which the IC50 at (UniProt A0A6M3RDS9) amounted to 18.1 µM. Consider `C=C(C)[C@@H]1CC[C@]2(C(=O)O)CC[C@]3(C)[C@H](CC[C@@H]4[C@@]5(C)CC[C@H](O)[C@@](C)(CO)[C@@H]5CC[C@]43C)[C@@H]12` [anemosapogenin], for which the inhibition at 100 µM against ureG is ~100%. On the same count and under the same terms, the figure for `O=C(/C=C/c1ccc(O)c(O)c1)O[C@H]1[C@H](O)C[C@](O)(C(=O)O)C[C@H]1OC(=O)/C=C/c1ccc(O)c(O)c1` [isochlorogenic acid B] is ~100%.

The IC50 is the point on the concentration scale where inhibition reaches its midpoint. A high value points to a need for much substance. One may read the inhibition as the percentage by which the read-out fell short of the control. Read a high inhibition as strong suppression.
